Experiments:
[1] = tested on: rat carotid balloon injury model; assay: Vascular endothelial thickening inhibiting effect in rat carotid balloon injury model; type: in vivo; settings: oral 50 mg/kg twice daily (hydrochloride), 15 days, aminoguanidine hydrochloride 45 mg/kg twice daily as positive control
Method: vascular endothelial thickening inhibiting effect in rat carotid balloon injury model, which is post-vasodilatory operation restenosis model.
TM-2002 was suspended in sodium carboxymethylcellulose aqueous solution (CMC) (0.5%) using mortar and prepared to the concentration of 12.5 mg/mL using measuring cylinder.
Aminoguanidine hydrochloride (Sigma) was used as positive control, suspended in CMC aqueous solution (0.5%) using mortar in the same manner, and prepare to the concentration of 11.25 mg/mL using measuring cylinder. Each preparation was formed when use it to administer orally coercively using disposable injection and oral sonde with suspending. […]
While testing, the alive and the condition of wound were observed everyday. The body weight was measured once a day from the day before injury to 14 day after balloon injury. The dose of each individuals were calculated by their body weight.
The blood samples were obtained from abdomen vena cava under anesthesia by ether on 15 day after balloon injury. […] The area of intravascular lumen, the area surrounded by internal elastic lamina and the area surrounded by external elastic lamina was calculated using image analyzer (VM-30, Olympus photology).
For each sections (3 region), the area of neointimal, media and neointimal/media rate of blood vessel was calculated from the measured area. […]

[2] = tested on: ORP150; assay: ER stress inducing molecule expression in RIN-5F cells, western blot, ORP150; type: cell-based, rat; settings: TM-2002 200 μM, 50 μM and tunicamycin co-added
Method: Rat pancreatic β cell line (RIN-5F) was seeded in 6 well culture plate to 1.0×10^5 cells/well, and after 24 hours, TM-2002 in DMSO (200 mM, 50 mM) were added to be final concentration 200 μM, 50 μM. After another 1 hour, 0.2 μl of tunicamycin (Sigma) in methanol(1 mg/ml) was added. After culturing 8 hours, the cells were washed 2 ml of PBS(+) twice, and the cells were dissolved in 100 μl of lysate (50 mM Tris-HCl (pH 7.5), 150 mM NaCl, 100 mM NaF, 100 mM sodium phosphate (pH 7.4), 2 mM Na3VO4, 0.1% protease inhibitor cocktail (Sigma), 1% Triton X-100). To remove the insoluble fraction of this lysate, centrifuged at 12,000×g for 10 minutes and obtained the supernatant to give cell extract. The extract was quantified its protein concentration using DC protein assay kit (Bio Rad), and each samples (1 μg) was electrophoresed by SDS-PAGE and transferred to PVDF membrane. The membrane was blocked with 5% skimmed milk/0.1% Tween20-TBS for 1 hour at room temperature, and reacted with anti-ORP150 antibody in 5% skimmed milk/0.1% Tween20-TBS (2000 folds: specific antibody), anti-GRP78 antibody (Santa Cruz) in 5% skimmed milk/0.1% Tween20-TBS (100 folds) and anti-actin antibody (Sigma) in 5% skimmed milk/0.1% Tween20-TBS (200 folds) for 2 hours. […] The detected signal was analyzed by Lane analyzer (ATTO) and calculated the signal strength. […]

## Cc1ncc2c(c1O)C(c1c(C)nn(-c3ccccc3)c1O)OC2 (centres unmarked) [compound 68, 1-(5-hydroxy-3-methyl-1-phenyl-1H-pyrazol-4-yl)-6-methyl-1,3-dihydro-furo[3,4-c]pyridin-7-ol]
[1]
  intimal thickening inhibiting effect: intimal thickening inhibiting effect equal to aminoguanidine group
[2]
  hyperexpression of ORP150: suppressed

Source: patent US7645882B2, “Inhibitor of protein modification products formation” (priority 2003, dated 2010)
